Test results published in patent publication US6468537B1, “Localization of major peptide autoepitopes for nucleosome specific T cells of systemic lupus erythematosus” (The Board of Trustees of Northwestern University, priority 1999, dated 2002).

Assays:
[1] = test system: pathogenic Th clones from SNF1 mice; experiment: Stimulation of nucleosome-specific pathogenic Th clones from SNF1 mice by eluted/synthetic peptides; format: cell-based, mouse; settings: A20 or splenic B+Mφ as APC
Protocol: Fresh splenic, CD4^+ T cells (5×10^5/well) were co-cultured in triplicate wells at an initial concentration of 5×10^5 cells per well, with 10^6 cells per well of either irradiated B+Mφ or mitomycin-C treated A20 APC. Varying concentrations of either control or test peptides were added and the cultures were adjusted to 200 microliters final volume of HL-1 serum-free medium (Hycor Biomedical Inc., Irvine, Calif.) cultures were incubated for 96 hours in flat bottom 96-well plates, and at 18 hours prior to harvesting the cells, 1 microcurie of 3H-Thymidine was added to each well. The incorporated radioactivity was measured by scintillation counting. The Stimulation Index (SI) was calculated by dividing the mean counts per minute (cpm) incorporated in co-cultures of T cells and APC with test peptide by the mean cpm incorporated in control peptide co-cultures. In the case of cytokine assays, experiments were carried out as described for the proliferation assays except that the culture supernatants were removed from duplicate co-culture wells after 24-46 hours of incubation and cytokine assays were performed.
An aliquot of 50 microliters from each HPLC fraction was assayed for stimulating ability as described above. Four characterized Th clones were used as indicators of cytokine secretion (IL-2 and/or IL-4) in response to the peptide fractions, using A20 or splenic B+Mψ as APCs (Adams, et al., 1991, Proc. Natl. Acad. Sci. USA 88:11271-11275; Shi, et al., 1998, J. Exp. Med. 187:367-378). […] Only two out of one hundred fractions tested were able to stimulate Th cell clones. […] The latter was further separated as described, and tested for active fractions of HPLC purified peptides.. Three naturally processed and presented, stimulatory epitopes were identified using these procedures. The sequences of the peptides are as follows: SQKEEEEGAQREKE (EP-1, SEQ ID NO: 23); DWMEEEHGAQREKE (EP-2, SEQ ID NO: 24); and […] (EP-3, or H522-42, SEQ ID NO: 25). The first two peptides were homologous to sequences in a transcription factor, BRN-3, which is identical in chicken, mice and humans (GenBank). […] EP-1 is highly homologous to EP-2, but it also matched a sequence in cytomegalovirus envelope protein at aa position 57-70. Most likely these peptides are derived from some transcription factor in the chromatin that was incubated with the APC. The third sequence (EP-3) was derived from histone H5 (aa position 22-42) in chicken nucleosome, which is homologous to histone H1 sequence of mice and humans at amino acid position 22-42 ([…], SEQ ID NO:26). […] Therefore, the mouse H122-42 is the autoantigenic peptide in mice and is also referred to herein as EP-3. Nested sequences and unrelated sequences that were obtained in the active fractions from the eluates were also synthesized and re-tested.

SNF1 mice [2] = experiment: Acceleration of SLE-associated nephritis by immunization with eluted peptides in adjuvant; format: in vivo, mouse
Description: The animals received three more injections at two weeks interval with 50 micrograms of either an eluted peptide or the control peptide absorbed on alum (Pierce Chemical Co., Rockford, Ill.).

SNF1 mice [3] = experiment: Brief therapy with nucleosomal histone peptides (long-term experiments): incidence of severe nephritis; format: in vivo, mouse
Protocol: (§1) Long-term experiments used 12 week-old, autoimmune, but pre-nephritic SNF1 female mice. Nine mice per peptide test group were injected intravenously with either a saline (solution) or a peptide solution comprising saline and 300 micrograms of one of H2B10-33, H416-39, and H471-94. Each mouse received three subsequent injections of either the saline solution or one of the peptide solutions at two-week intervals. The mice were monitored weekly for proteinuria using an Albustix kit (VWR Scientific, Chicago, Ill.), and sacrificed upon the development of persistent proteinuria. Persistent protenuria was identified as an amount of protein in urine that is equivalent to or greater than 300 milligrams per deciliter, and is a primary indication of severe kidney disease and damage associated with nephritis. Sera were collected from each mouse and the IgG anti-nuclear autoantibodies determined. Blood urea nitrogen (BUN) was measured by Azostix (Miles, Ekhart, Ind.). Immune complex deposition and glomerulonephritis in the kidney were detected by staining with Hematoxylin and Eosin and anti-mouse Ig. These procedures were carried out as previously described (Mohan et al., 1993, J. Exp. Med. 177:1367; Mohan et al., 1995, J. Immunol. 154:1470; Eastcott et al., 1983, J. Immunol. 131:2232; Adams et al., 1991, Proc. Natl. Acad. Sci. USA 88:11271; Kalled et al., 1998, J. Immunol. 160:2158; Gaynor et al., 1997, Proc. Natl. Acad. Sci. USA 94:1955).

SNF1 mice [4] = experiment: Short-term tolerance experiments: grading of lupus nephritis at sacrifice; format: in vivo, mouse; settings: short-term batch, at sacrifice two weeks after last injection
Protocol: Short-term experiments were conducted to test the early immunological consequences of tolerance therapy. Twelve week old SNF1 mice were injected once a week for four weeks with either a saline solution or a peptide solution comprising saline and 300 micrograms of one of the above described peptides. Mice were sacrificed at two weeks after the last injection. Presence of autoimmune T and B cells was analyzed and renal lesions were graded.

CD4+ T cells = experiment: Helper assay: CD4+ T cells from peptide-injected mice co-cultured with B cells from unmanipulated SNF1 mice; format: cell-based, mouse
Description: (§2) Levels of IgG class autoantibodies specific for single-stranded DNA (ssDNA), double-stranded DNA (dsDNA), histones, and nucleosomes (i.e. histone-DNA complexes), in culture supernatants or serum, were estimated using an enzyme-linked immunosorbent assay (ELISA). Anti-DNA mAbs 564 and 205 were used to generate standard curves as previously described (Mohan et al., 1993, J. Exp. Med. 177:1367; Kaliyaperumal et al., 1996, J. Exp. Med. 183:2459; Mohan et al., 1995, J. Immunol. 154:1470; Adams et al., 1991, Proc. Natl. Acad. Sci. USA 88:11271). Sera were diluted 1:400 and heat-inactivated before use according to standard procedures. Sera from normal SWR mice were used as the negative control. Total polyclonal IgG levels were also measured by ELISA as previously described (Mohan et al., 1993, J. Exp. Med. 177:1367; Mohan et al., 1995, J. Immunol. 154:1470; Adams et al., 1991, Proc. Natl. Acad. Sci. USA 88:11271).
T-cells from peptide-treated mice used in the short-term experiments were co-cultured with splenic B cells from unmanipulated mice. Conversely, T cells from unmanipulated SNF1 mice (i.e. control mice) were co-cultured with splenic B cells from tolerized (i.e. peptide-injected) mice. Each of the cell types was seeded in 24-well plates at an initial concentration of 2.5×10^6 cells per well. Cultures were maintained for 7 days, as previously described (Datta et al., 1987, J. Exp. Med. 165:1252; Sainis and Datta, 1988, J. Immunol. 140:2215). B cells from unmanipulated or tolerized animals were cultured alone to measure baseline autoantibody production. Culture supernatants were collected, freeze-thawed, and assayed by ELISA for antibodies against ssDNA, dsDNA, histones and nucleosomes. For studies involving stimulation of B cells by soluble CD40 ligand, CD40L-CD8 fusion protein (Wortis et al., 1995, Proc. Natl. Acad. Sci. USA 92:3348) was added to either the co-culture wells or the wells with B cells alone and maintained in the medium for the entire 7-day culture period.

SNF1 mice [5] = experiment: IgG anti-nuclear autoantibody and total IgG levels in sera of peptide-injected mice (ELISA); format: in vivo, mouse; settings: sera 1:400
Protocol: as §1, §2

SNF1 mice [6] = experiment: Chronic therapy of established glomerulonephritis with nucleosomal peptides; format: in vivo, mouse
Protocol: Six mice per group were injected intraperitoneally once each month with either a saline solution or a peptide solution comprising saline and 300 micrograms of one of the identified peptides. The endpoint of these experiments was the development of moribund state due to renal failure.

CD4+ T cell clone DD2 = experiment: IL-2 production by lupus Th cell clone DD2 in response to histone peptides; format: cell-based, human; settings: autologous EBV-B cells pulsed with peptide as APC
Protocol: Short-term T cell lines were rapidly thawed from liquid nitrogen and expanded in the presence of plate-bound anti-CD3 mAb, anti-CD28 mAb, and rIL-2 (20 units per milliliter). The expanded cells were transferred to fresh culture wells and rested by incubating in fresh medium for 10 to 14 days. For stimulation assays, 96 well plates were coated with 2 micrograms per milliliter of goat anti-mouse IgG antibodies overnight at 37° C. After washing the plates twice with Dulbecco's phosphate-buffered saline (dPBS), autologous and previously irradiated (3,000 rad) EBV-B cells (APC) were first added to each well at a concentration of 1×10^5 cells per well. The cells (APC) were cultured together with either a core histone peptide or a control peptide for 6 hours in HL-1 serum free medium (Bio Whittaker, Maryland). This procedure was followed by the addition to each well of CD4^+ T cells from the short-term lines at a concentration of 1×10^5 cells per well, and the addition of 0.5 micrograms per milliliter of a mouse monoclonal antibody (mAb) to human CD28. The final volume of the cultures was 200 microliters per well. Cells were co-cultured for 24 hours at 37° C. One-half the volume of supernatant was collected from each well for ELISA analysis of interleukin levels. Fresh medium (100 microliters) was added to cells, and the cells were incubated an additional 48 hours. [^3H] thymidine was added, and the cultures were incubated an additional 18 hours. Incorporated radioactivity was measured to quantitate T cell proliferation as described previously (Desai-Mehta et al., 1995, J. Clin. Invest. 95:53 1-541). HLA class II dependence of antigen-specific responses by the CD4^+ T cells was determined by adding to the co-cultures a blocking antibody from a panel of mAb to HLA class II molecules, as described previously (Desai-Mehta et al., 1995, J. Clin. Invest. 95:53 1-541). […]
IL-2 secreted by CD4^+ T cells in short term experiments was measured using an ELISA. […]

[7] = test system: short-term CD4+ T cell lines; experiment: IL-2 production by short-term CD4+ T cell lines in response to histone peptides (pepscan); format: cell-based, human; settings: short-term lines from 10 lupus patients
Protocol: Short-term T cell lines were rapidly thawed from liquid nitrogen and expanded in the presence of plate-bound anti-CD3 mAb, anti-CD28 mAb, and rIL-2 (20 units per milliliter). The expanded cells were transferred to fresh culture wells and rested by incubating in fresh medium for 10 to 14 days. For stimulation assays, 96 well plates were coated with 2 micrograms per milliliter of goat anti-mouse IgG antibodies overnight at 37° C. After washing the plates twice with Dulbecco's phosphate-buffered saline (dPBS), autologous and previously irradiated (3,000 rad) EBV-B cells (APC) were first added to each well at a concentration of 1×10^5 cells per well. The cells (APC) were cultured together with either a core histone peptide or a control peptide for 6 hours in HL-1 serum free medium (Bio Whittaker, Maryland). This procedure was followed by the addition to each well of CD4^+ T cells from the short-term lines at a concentration of 1×10^5 cells per well, and the addition of 0.5 micrograms per milliliter of a mouse monoclonal antibody (mAb) to human CD28. The final volume of the cultures was 200 microliters per well. Cells were co-cultured for 24 hours at 37° C. One-half the volume of supernatant was collected from each well for ELISA analysis of interleukin levels. Fresh medium (100 microliters) was added to cells, and the cells were incubated an additional 48 hours. [^3H] thymidine was added, and the cultures were incubated an additional 18 hours. Incorporated radioactivity was measured to quantitate T cell proliferation as described previously (Desai-Mehta et al., 1995, J. Clin. Invest. 95:53 1-541). HLA class II dependence of antigen-specific responses by the CD4^+ T cells was determined by adding to the co-cultures a blocking antibody from a panel of mAb to HLA class II molecules, as described previously (Desai-Mehta et al., 1995, J. Clin. Invest. 95:53 1-541).
IL-2 secreted by CD4^+ T cells in short term experiments was measured using an ELISA. Capture and biotinylated antibody pairs directed at human IL-2 and standards for use therein were purchased from PharMingen. […]

“DWMEEEHGAQREKE (DWMEEEEGAQREKE; Histone fragment) [EP-2]” was tested, and the “stimulation of pathogenic Th clones” value [1] was “stimulatory”, the mice developed disease (SNF1 mice [2]; by 20 weeks of age) was 60% and the “onset/rate of disease relative to control group (CFA alone or OVA peptide in CFA)” value (SNF1 mice [2]; immunization from 12 weeks) was “developed severe nephritis earlier”.

“H2B10-33: histone 2B protein (H2B) amino acids 10-33” was tested, and the “incidence of severe nephritis” value (SNF1 mice [3]; at 28 weeks of age, 300 micrograms i.v., four injections at two-week intervals from 12 weeks) was “did not develop disease”, the “incidence of severe nephritis” value (SNF1 mice [3]; at 36-38 weeks of age, control 88.8%) was 33.3% and the “Percent Incidence, Grading of Lupus Nephritis 1+” value (SNF1 mice [4]) was 66.6. For the same substance, the “Percent Incidence, Grading of Lupus Nephritis 2+” value (SNF1 mice [4]) was 33.3, the “reduction of anti-ssDNA antibody production relative to control group” value (CD4+ T cells; T cells from treated mice + B cells from unmanipulated mice) was “approximately 55%” and the “decrease in anti-dsDNA antibody production relative to control group” value (CD4+ T cells; T cells from treated mice + B cells from unmanipulated mice, 7 days) was “five fold decrease”. For the same substance, the “increase in help for anti-dsDNA antibody production following addition of rIL-2” value (CD4+ T cells; rIL-2 added at beginning of 7-day culture) was “did not exhibit any increase”, the “serum anti-dsDNA antibody level” value (SNF1 mice [5]; at 36 weeks of age, control 26±3.2) was 14.0±3.2 units and the “serum anti-dsDNA antibody level” value (SNF1 mice [5]; at the start of treatment (12 weeks), control 5.5±0.3) was 7.7±0.9 units. The survival (SNF1 mice [6]; by 26 months age) was “only one mouse in the H2B10-33 group survived” and the mice alive (SNF1 mice [6]; two months after start of treatment (all controls dead), 300 micrograms i.p. monthly, 18-month old mice) was 66.6%.

For “H355-69: 15-mer nucleosomal histone H3 peptide, positions 55-69 (QKSTELLIRKLPFQR; UniProt P68431 56-70, looked up, fragment)”, the “stimulation of DD2” value (CD4+ T cell clone DD2) was “stimulated DD2 very weakly”.

For “H383-97: H3 peptide used as additional background control, partly within a stimulatory region in H3 (RFQSSAVMALQEACE; UniProt P68431 84-98, looked up, fragment)”, the “stimulation of DD2” value (CD4+ T cell clone DD2) was “not recognized by any of the T-cell lines or clone DD2” and the “recognition by / response of lupus T cell lines” value [7] was “not recognized by any of the T-cell lines or clone DD2”.
